These results are taken from US11046699B2, “Pyrazolo-pyrimidin-amino-cycloalkyl compounds and their therapeutic uses” (RAPT THERAPEUTICS, INC., priority 2018, dated 2021).

pIC50: −log10 of the molar value. Structures can show the parent of a compound that is named as a salt. Where two headings read alike, the source gives them in different places.

The target in this experiment is GCN2 (Homo sapiens, UniProt Q9P2K8). Description: GCN2 enzymatic endpoint assay: phosphorylation of GFP-eIF2α measured by TR-FRET (Lanthascreen). It is filed as biochemical. The method in brief:
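Endpoint GCN2 reaction with low ATP (2 μM) and 80 nM GFP-eIF2α, room temperature, 90 minutes. Detection mix with EDTA and Tb-labelled antibody; 520 nm/495 nm emission ratio reported.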
On the technique in general: TR-FRET usually uses a lanthanide donor and a delayed reading to cut background.

[1] abbreviates: tested as described in Example 77, compound and/or hydrochloride, dihydrochloride or trifluoroacetic acid salt, read-out: IC 50 Activity.

GCN2, sequence (Q9P2K8 whole entry): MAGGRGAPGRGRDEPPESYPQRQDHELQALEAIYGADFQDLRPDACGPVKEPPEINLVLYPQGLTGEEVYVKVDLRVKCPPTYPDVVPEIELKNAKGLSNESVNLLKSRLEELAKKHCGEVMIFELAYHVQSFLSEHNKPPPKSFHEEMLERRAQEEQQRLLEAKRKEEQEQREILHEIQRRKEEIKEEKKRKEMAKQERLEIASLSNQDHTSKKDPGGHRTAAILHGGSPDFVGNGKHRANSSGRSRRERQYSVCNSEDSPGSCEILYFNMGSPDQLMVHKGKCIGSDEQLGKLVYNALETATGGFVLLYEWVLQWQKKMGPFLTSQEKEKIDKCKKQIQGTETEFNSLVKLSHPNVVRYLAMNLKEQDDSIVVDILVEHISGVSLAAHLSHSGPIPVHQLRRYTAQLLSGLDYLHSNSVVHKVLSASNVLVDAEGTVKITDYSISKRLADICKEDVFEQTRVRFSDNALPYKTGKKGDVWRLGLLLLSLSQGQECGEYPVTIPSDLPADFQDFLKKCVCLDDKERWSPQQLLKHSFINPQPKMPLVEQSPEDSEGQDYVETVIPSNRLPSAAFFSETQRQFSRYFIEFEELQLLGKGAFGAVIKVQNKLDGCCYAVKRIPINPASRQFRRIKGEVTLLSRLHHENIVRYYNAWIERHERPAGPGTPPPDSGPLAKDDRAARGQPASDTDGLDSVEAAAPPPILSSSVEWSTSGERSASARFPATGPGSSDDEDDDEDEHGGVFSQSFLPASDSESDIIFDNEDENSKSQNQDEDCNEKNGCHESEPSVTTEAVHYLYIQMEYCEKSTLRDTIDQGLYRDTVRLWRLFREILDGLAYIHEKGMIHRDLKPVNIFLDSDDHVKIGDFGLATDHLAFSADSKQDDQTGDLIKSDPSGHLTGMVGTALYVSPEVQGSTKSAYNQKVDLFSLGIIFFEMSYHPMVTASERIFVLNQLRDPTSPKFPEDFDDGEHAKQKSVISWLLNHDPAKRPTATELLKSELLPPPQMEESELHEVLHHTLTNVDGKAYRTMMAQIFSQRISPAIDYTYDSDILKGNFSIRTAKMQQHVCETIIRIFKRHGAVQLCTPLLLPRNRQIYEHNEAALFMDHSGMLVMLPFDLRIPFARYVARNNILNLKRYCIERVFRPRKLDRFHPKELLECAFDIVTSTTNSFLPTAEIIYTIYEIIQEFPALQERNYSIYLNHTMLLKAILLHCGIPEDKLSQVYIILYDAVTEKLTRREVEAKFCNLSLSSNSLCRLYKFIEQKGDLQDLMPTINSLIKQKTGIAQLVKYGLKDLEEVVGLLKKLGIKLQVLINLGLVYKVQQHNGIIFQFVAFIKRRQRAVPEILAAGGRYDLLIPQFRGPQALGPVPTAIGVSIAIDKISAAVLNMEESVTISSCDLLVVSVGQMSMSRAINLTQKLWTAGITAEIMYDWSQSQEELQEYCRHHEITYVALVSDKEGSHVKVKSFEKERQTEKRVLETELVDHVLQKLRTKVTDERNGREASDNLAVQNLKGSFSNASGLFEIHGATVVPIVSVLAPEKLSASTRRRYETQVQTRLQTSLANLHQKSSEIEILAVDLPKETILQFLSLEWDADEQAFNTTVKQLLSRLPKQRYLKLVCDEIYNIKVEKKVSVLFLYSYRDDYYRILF

Turning to `CNC(=O)[C@]1(C)CC[C@@H](Nc2ncc3c(Br)nn(-c4ccc5c(c4)C(C)(C)CO5)c3n2)C1` [(1R,3R)-3-[[3-bromo-1-(3,3-dimethyl-2H-benzofuran-5-yl)pyrazolo[3,4-d]pyrimidin-6-yl]amino]-N,1-dimethyl-cyclopentane-carboxamide], the pIC50 under setting [1] was 6.70 to 7.60.

Regarding `N#Cc1cc(-n2nc(Br)c3cnc(N[C@@H]4CC[C@@H](C(=O)NCC5CC5)C4)nc32)cc2cccnc12` [(1R,3R)-3-((3-bromo-1-(8-cyanoquinolin-6-yl)-1H-pyrazolo[3,4-d]pyrimidin-6-yl)amino)-N-(cyclopropylmethyl)cyclo-pentane-1-carboxamide], the pIC50 under setting [1] is 6.70 to 7.60.

For `CNC(=O)[C@]1(C)CC[C@@H](Nc2ncc3c(Br)nn(-c4cc(CNS(=O)(=O)C5COC5)c5nccnc5c4)c3n2)C1` [(1R,3R)-3-[[3-bromo-1-[8-[(oxetan-3-ylsulfonylamino)methyl]quinoxalin-6-yl]pyrazolo[3,4-d]pyrimidin-6-yl]amino]-N,1-dimethyl-cyclopentane-carboxamide], the pIC50 under setting [1] is 6.70 to 7.60.

For the compound `COCCNC(=O)[C@H]1CC[C@H](Nc2ncc3c(Br)nn(-c4ccc5ncccc5c4)c3n2)C1` [(1S,3S)-3-((3-bromo-1-(quinolin-6-yl)-1H-pyrazolo[3,4-d]pyrimidin-6-yl)amino)-N-(2-methoxyethyl)cyclopentane-1-carboxamide], under setting [1], the pIC50 was 6.00 to 6.30.

With `CNC(=O)[C@]1(C)CC[C@@H](Nc2ncc3c(Br)nn(-c4cc(C#N)cc(CS(C)(=O)=O)c4)c3n2)C1`, the pIC50 under setting [1] is 6.70 to 7.60.

Regarding `CNC(=O)[C@]1(C)CC[C@@H](Nc2ncc3c(Br)nn(-c4ccc(-c5cnn(C)c5C#N)cc4)c3n2)C1` [(1R,3R)-3-[[3-bromo-1-[4-(5-cyano-1-methyl-pyrazol-4-yl)phenyl]pyrazolo[3,4-d]pyrimidin-6-yl]amino]-N,1-dimethyl-cyclopentane-carboxamide], the pIC50 under setting [1] was 6.70 to 7.60.

For the compound `CNC(=O)C1(C)CC[C@@H](Nc2ncc3c(Br)nn(-c4ccc(-c5noc(C)n5)cc4)c3n2)C1` (stereo partly drawn) [(3R)-3-[[3-bromo-1-[4-(5-methyl-1,2,4-oxadiazol-3-yl)phenyl]pyrazolo[3,4-d]pyrimidin-6-yl]amino]-N,1-dimethyl-cyclopentanecarboxamide], the pIC50 under setting [1] was 6.70 to 7.60.

As to `C[C@H](N)c1cc(Cl)cc(-n2nc(Br)c3cnc(N[C@@H]4CCC5(CC(=O)N(C)C5=O)C4)nc32)c1` (stereo partly shown), the pIC50 under setting [1] was 6.70 to 7.60.

Regarding `CNC(=O)N1CC[C@@H](Nc2ncc3c(Br)nn(-c4ccc(-c5nnc(C)s5)cc4)c3n2)C1` [(3R)-3-[[3-bromo-1-[4-(5-methyl-1,3,4-thiadiazol-2-yl)phenyl]pyrazolo [3,4-d]pyrimidin-6-yl]amino]-N-methyl-pyrrolidine-1-carboxamide], the pIC50 under setting [1] is 6.70 to 7.60.

Consider `Cc1nnc(-c2ccc(-n3nc(Br)c4cnc(NC5CC(P(C)(C)=O)C5)nc43)cc2CCS(C)(=O)=O)s1` (stereo not shown) [3-bromo-N-(3-dimethylphosphorylcyclo-butyl)-1-[3-(2-methylsulfonylethyl)-4-(5-methyl-1,3,4-thiadiazol-2-yl)phenyl] pyrazolo[3,4-d]pyrimidin-6-amine], for which, under setting [1], the pIC50 was 6.70 to 7.60.

With `CN(C)S(=O)(=O)C1CC[C@@H](Nc2ncc3c(Br)nn(-c4cc(F)c5ncccc5c4)c3n2)C1` (stereo partly drawn) [(3R)-3-((3-bromo-1-(8-fluoroquinolin-6-yl)-1H-pyrazolo[3,4-d]pyrimidin-6-yl)amino)-N,N-dimethylcyclopentane-1-sulfonamide], the pIC50 under setting [1] was 6.70 to 7.60.

Take `O=C(NCCOC(F)(F)F)[C@@H]1CC[C@@H](Nc2ncc3c(Br)nn(-c4ccc5ncccc5c4)c3n2)C1` [(1R,3R)-3-((3-bromo-1-(quinolin-6-yl)-1H-pyrazolo[3,4-d]pyrimidin-6-yl)amino)-N-(2-(trifluoromethoxy)ethyl)cyclopentane-1-carboxamide]: the pIC50 under setting [1] is 6.30 to 6.70.

For the compound `CNC(=O)[C@]1(C)CC[C@@H](Nc2ncc3c(Br)nn(-c4ccc5nc[nH]c(=O)c5c4)c3n2)C1`, the pIC50 under setting [1] was 6.70 to 7.60.

With `O=C1OCC[C@]12CC[C@@H](Nc1ncc3c(Br)nn(-c4cc(F)c5ncccc5c4)c3n1)C2` [(5R,7R)-7-((3-bromo-1-(8-fluoroquinolin-6-yl)-1H-pyrazolo[3,4-d]pyrimidin-6-yl)amino)-2-oxaspiro[4.4]nonan-1-one], under setting [1], the pIC50 was above 7.60.

As for `CNC(=O)[C@]1(C)CC[C@@H](Nc2ncc3c(Br)nn(-c4ccc5nc(NC)ncc5c4)c3n2)C1`, under setting [1], the pIC50 was 6.70 to 7.60.

Turning to `CNC(=O)[C@]1(C)CC[C@@H](Nc2ncc3c(Br)nn(-c4ccc5c(c4)c(=O)n(C)c(=O)n5C)c3n2)C1`, under setting [1], the pIC50 is above 7.60.

Consider `CNC(=O)[C@]1(C)CC[C@@H](Nc2ncc3c(Br)nn(-c4ccc(-c5nnc(C)s5)c(CCN5CCOCC5)c4)c3n2)C1` [(1R,3R)-3-[[3-bromo-1-[4-(5-methyl-1,3,4-thiadiazol-2-yl)-3-(2-morpholino-ethyl)phenyl]pyrazolo[3,4-d]pyrimidin-6-yl]amino]-N,1-dimethyl-cyclo-pentanecarboxamide], for which the pIC50 under setting [1] is 6.70 to 7.60.

As for `COCCNC(=O)[C@@H]1CC[C@@H](Nc2ncc3c(Br)nn(-c4ccc(-n5cccn5)cc4)c3n2)C1` [(1R,3R)-3-((1-(4-(1H-pyrazol-1-yl)phenyl)-3-bromo-1H-pyrazolo[3,4-d]pyrimidin-6-yl)amino)-N-(2-methoxyethyl)cyclopentane-1-carboxamide], under setting [1], the pIC50 is 6.30 to 6.70.

As to `CNC(=O)[C@]1(C)CC[C@@H](Nc2ncc3c(Br)nn(-c4ccc(-c5nnc(C)[nH]5)cc4)c3n2)C1` [(1R,3R)-3-[[3-bromo-1-[4-(5-methyl-4H-1,2,4-triazol-3-yl)phenyl]pyrazolo[3,4-d]pyrimidin-6-yl]amino]-N,1-dimethyl-cyclopentanecarboxamide], under setting [1], the pIC50 is 6.70 to 7.60.

In the case of `CNC(=O)[C@]1(C)CC[C@@H](Nc2ncc3c(Br)nn(-c4cc(CCN)c5ncc(C#N)cc5c4)c3n2)C1` [(1R,3R)-3-[[1-[8-(2-aminoethyl)-3-cyano-6-quinolyl]-3-bromo-pyrazolo[3,4-d]pyrimidin-6-yl]amino]-N,1-dimethyl-cyclopentane-carboxamide], the pIC50 under setting [1] was 6.70 to 7.60.

`CNC(=O)[C@]1(C)CC[C@@H](Nc2ncc3c(Br)nn(-c4cc(CC(C)(C)O)c5ncccc5c4)c3n2)C1` [(1R,3R)-3-[[3-bromo-1-[8-(2-hydroxy-2-methyl-propyl)-6-quinolyl]pyrazolo[3,4-d]pyrimidin-6-yl]amino]-N,1-dimethyl-cyclopentanecarboxamide]: the pIC50 under setting [1] is 6.70 to 7.60.

On to `COCCNS(=O)(=O)[C@@H]1CC[C@@H](Nc2ncc3c(Br)nn(-c4ccc5ncccc5c4)c3n2)C1` [(1R,3R)-3-((3-bromo-1-(quinolin-6-yl)-1H-pyrazolo[3,4-d]pyrimidin-6-yl)amino)-N-(2-methoxyethyl)cyclopentane-1-sulfonamide], for which the pIC50 under setting [1] was 6.70 to 7.60.

Consider `CN(CC(N)=O)C(=O)[C@@H]1CC[C@@H](Nc2ncc3c(Br)nn(-c4cc(F)c5ncccc5c4)c3n2)C1` [(1R,3R)-N-(2-amino-2-oxoethyl)-3-((3-bromo-1-(8-fluoroquinolin-6-yl)-1H-pyrazolo[3,4-d]pyrimidin-6-yl)amino)-N-methylcyclopentane-1-carboxamide], for which the pIC50 under setting [1] is 6.70 to 7.60.

For `CNC(=O)[C@@]1(C)CC[C@@H](Nc2ncc3c(Br)nn(-c4ccc5ncc(CCO)cc5c4)c3n2)C1` [(1S,3R)-3-[[3-bromo-1-[3-(2-hydroxy-ethyl)-6-quinolyl]pyrazolo[3,4-d]pyrimidin-6-yl]amino]-N,1-dimethyl-cyclopentanecarboxamide], the pIC50 under setting [1] is above 7.60.

Regarding `C[C@H](N)c1cc(Cl)cc(-n2nc(Br)c3cnc(N[C@@H]4CC[C@@](C)(CO)C4)nc32)c1` [[(1R,3R)-3-[[1-[3-[(1S)-1-aminoethyl]-5-chloro-phenyl]-3-bromo-pyrazolo [3,4-d]pyrimidin-6-yl]amino]-1-methyl-cyclopentyl]methanol hydrochloride], the pIC50 under setting [1] was 6.70 to 7.60.

For `CS(=O)(=O)CCNC(=O)[C@@H]1CC[C@@H](Nc2ncc3c(Br)nn(-c4cc(F)c5ncccc5c4)c3n2)C1` [(1R,3R)-3-((3-bromo-1-(8-fluoroquinolin-6-yl)-1H-pyrazolo[3,4-d]pyrimidin-6-yl)amino)-N-(2-(methylsulfonyl)ethyl)cyclo-pentane-1-carboxamide], under setting [1], the pIC50 is 6.30 to 6.70.

Consider `CNC(=O)[C@]1(C)CC[C@@H](Nc2ncc3c(Br)nn(-c4ccc(-c5noc(C)n5)cc4)c3n2)C1` [(1R,3R)-3-[[3-bromo-1-[4-(5-methyl-1,2,4-oxadiazol-3-yl)phenyl]pyrazolo [3,4-d]pyrimidin-6-yl]amino]-N,1-dimethyl-cyclopentanecarboxamide], for which the pIC50 under setting [1] is 6.70 to 7.60.

Take `CNC(=O)[C@]1(C)CC[C@@H](Nc2ncc3c(Br)nn(-c4cc(C#N)cc(OCCOC)c4)c3n2)C1` [(1R,3R)-3-[[3-bromo-1-[3-cyano-5-(2-methoxyethoxy)phenyl]pyrazolo[3,4-d]pyrimidin-6-yl]amino]-N,1-dimethyl-cyclopentanecarboxamide]: under setting [1], the pIC50 is 6.70 to 7.60.

Turning to `COCCNC(=O)[C@@H]1CC[C@@H](Nc2ncc3c(Br)nn(-c4ccc(-c5ncco5)cc4)c3n2)C1` [Example 26, (1R,3R)-3-((3-bromo-1-(4-(oxazol-2-yl)phenyl)-1H-pyrazolo[3,4-d]pyrimidin-6-yl)amino)-N-(2-methoxyethyl)cyclopentane-1-carboxamide], the pIC50 (GCN2 biochemical IC50, 4 nM GCN2, 2 μM ATP, 80 nM GFP-eIF2α, 90 min RT, read-out: GCN2 activity) is 6.70 to 7.60.

Turning to `C[C@@H]1C(=O)N(C)CCN1C(=O)[C@@H]1CC[C@@H](Nc2ncc3c(Br)nn(-c4cc(C#N)c5ncccc5c4)c3n2)C1` [6-(3-bromo-6-(((1R,3R)-3-((R)-2,4-dimethyl-3-oxopiperazine-1-carbonyl)cyclopentyl)amino)-1H-pyrazolo[3,4-d]pyrimidin-1-yl) quinoline-8-carbonitrile], the pIC50 under setting [1] was above 7.60.

Regarding `CNC(=O)[C@@H]1CC[C@@H](Nc2ncc3c(Br)nn(-c4ccc5nc(C)c(F)cc5c4)c3n2)C1` [(1R,3R)-3-((3-bromo-1-(3-fluoro-2-methyl-quinolin-6-yl)-1H-pyrazolo[3,4-d]pyrimidin-6-yl)amino)-N-methylcyclopentane-1-carboxamide], the pIC50 under setting [1] is 6.70 to 7.60.
